# Experimental data from patent publication US8618054B2, “Interleukin-1 receptor antagonists, compositions, and methods of treatment” (Valorisation-Rechereche Société en Commandite, priority 2004, dated 2013).
# Marks after values point to notes of the source that are not given here. Where a SMILES comes first, the peptide text is derived from it. Where no end group is shown, it is not given here. [ ]: non-standard residue; d: D form.
# Columns and labels:
# [1] = molecular target: T1, IL-1R/IL-1RacP receptor (Homo sapiens, UniProt P14778); test: IL-1β-induced proliferation in TF-1 cells; format: cell-based; design: endogenous in cells; host or cells: TF-1 cells
# T1 sequence (P14778 18-569): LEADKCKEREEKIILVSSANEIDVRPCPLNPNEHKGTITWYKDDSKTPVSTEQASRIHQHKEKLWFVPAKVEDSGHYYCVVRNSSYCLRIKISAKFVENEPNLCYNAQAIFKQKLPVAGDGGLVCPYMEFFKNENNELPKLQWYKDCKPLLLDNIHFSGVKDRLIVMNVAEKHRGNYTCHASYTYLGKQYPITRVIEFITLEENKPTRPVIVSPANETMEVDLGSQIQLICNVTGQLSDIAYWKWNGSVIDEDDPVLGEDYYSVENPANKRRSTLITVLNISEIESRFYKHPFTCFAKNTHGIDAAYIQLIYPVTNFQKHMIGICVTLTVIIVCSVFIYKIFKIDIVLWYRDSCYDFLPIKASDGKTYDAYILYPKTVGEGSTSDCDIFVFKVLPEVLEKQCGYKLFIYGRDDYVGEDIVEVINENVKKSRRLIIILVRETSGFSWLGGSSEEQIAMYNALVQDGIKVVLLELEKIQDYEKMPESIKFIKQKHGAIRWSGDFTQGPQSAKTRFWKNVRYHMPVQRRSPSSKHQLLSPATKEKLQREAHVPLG
# [2] = molecular target: T2, IL-1R/IL-1RacP receptor (Sus scrofa, UniProt A0A5G2QSI4); test: IL-1-induced PGE2 synthesis in piglet brain microvascular endothelial cells; format: cell-based, porcine; conditions: for inhibition of IL-1-induced PGE2 synthesis, compared with parent API-101: alanine scan peptides 10^−6M, endothelial cells; for Emax: Table 4, read-out: PGE2 synthesis in endothelial cells (porcine) Emax (%)
# T2 construct: endogenous in cells; host or cells: piglet brain microvascular endothelial cells
# T2 sequence (A0A5G2QSI4 21-572): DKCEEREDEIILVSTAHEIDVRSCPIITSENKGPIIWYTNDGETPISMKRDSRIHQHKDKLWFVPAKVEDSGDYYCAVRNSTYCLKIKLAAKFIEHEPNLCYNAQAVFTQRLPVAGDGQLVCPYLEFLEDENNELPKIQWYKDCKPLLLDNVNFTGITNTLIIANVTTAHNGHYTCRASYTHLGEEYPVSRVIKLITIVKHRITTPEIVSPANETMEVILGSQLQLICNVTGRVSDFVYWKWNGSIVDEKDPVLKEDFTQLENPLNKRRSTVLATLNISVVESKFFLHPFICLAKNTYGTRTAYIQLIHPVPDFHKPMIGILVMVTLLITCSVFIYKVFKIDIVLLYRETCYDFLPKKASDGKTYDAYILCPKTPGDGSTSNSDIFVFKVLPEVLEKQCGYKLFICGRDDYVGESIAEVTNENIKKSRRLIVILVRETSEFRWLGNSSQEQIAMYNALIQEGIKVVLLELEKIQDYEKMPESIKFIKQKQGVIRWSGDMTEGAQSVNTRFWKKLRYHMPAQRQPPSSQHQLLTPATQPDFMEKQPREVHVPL
# Method: (§1) It is well known in the art that IL-1 induces the synthesis of prostaglandin E2 (PGE2) in endothelial cells and/or chondrocytes in vitro. Therefore, human chondrocytes and piglet brain microvascular endothelial cells were pre-incubated 45-60 minutes at 37° C. with peptide API-101 (^10−6M) and human IL-1 (10 ng/ml) was added in the growing medium. After 24 hours of incubation, growth medium was collected and evaporated. PGE2 measurement was determined by RIA assay with a commercial kit (Cederlane).
# [3] = molecular target: T1, IL-1R/IL-1RacP receptor; test: IL-1-induced PGE2 synthesis in human chondrocytes; format: cell-based; design: endogenous in cells; conditions: alanine scan peptides 10^−6M
# Method: as §1
# [4] = TNBS-induced inflammatory bowel disease rat model, Example 6 (48 h; MPO, macroscopic, histologic); format: in vivo; design: macroscopic evaluation (median score): scale not given here
# Method: Colon inflammation was induced by intra-rectal/colon administration of the hapten trinitrobenzene sulphonic acid (TNBS) on male Sprague-Dawley rats (175-200 g) (Bouma, Nature Rev, 2003; Morris, Gastroenterology, 1989). Animals were anesthetized with isoflurane and TNBS dissolved in 50% ethanol (vol/vol). 120 mg/ml (TNBS) was administered into the colon (total volume of 0.25 ml per rat) using a polyethylene tube (PE50). The cannula was inserted at 8 cm from the anus and kept in place for at least 15 min after TNBS administration in order to prevent expulsion of the solution. […] A third group (control) was not injected with TNBS. Six days after administration of TNBS, rats were killed by CO2 inhalation. Day 6 was chosen as an endpoint because by day 7 spontaneous tissue regeneration begins and this can mask the therapeutic effect of the tested peptide or peptide derivative. Colon was removed and examined macroscopically (adhesions, ulcerations, discoloration and bleeding) and histologically (neutrophil infiltration, epithelial injury, crypt distortion and ulcerations) (Anthony et al. 1995; Padol et al. 2000; Dieleman, L A, et al. 1997; Torres M I et al. 1999). Two animals per group were studied.
# Colon inflammation was induced by intra-rectal/colon administration of the hapten trinitrobenzene sulphonic acid (TNBS) as described in Example 4. Two hours prior to TNBS administration, peptides, peptidomimetics or 0.9% saline were administered intravenously (iv) via the caudal vein (various concentrations of mg/kg/d) (total volume of 0.3 ml). […] A third group (control) was not injected with TNBS. […] Also, these IL-1R antagonists were given twice a day (BID); Remicade® (anti-TNFα) (10 mg/kg) and dexamethasone (0.75 mg/kg) were administered intraperitoneally but only once a day (qd). The intrarectal administration (ir) of 101.10, 101.113 (1 and 2.5 mg/kg), and 5-ASA (50 mg/kg) was done one hour after TNBS administration, and twice a day, except for 5-ASA which is once a day. Finally, 101.10 (1-5 mg/kg) was also administered orally by gavage (po), twice a day. Forty-eight hours after administration of TNBS, rats were killed by CO2 inhalation. Colon was removed and assessed macroscopically (adhesions, ulcerations, discoloration and bleeding) and histologically (neutrophil infiltration, epithelial injury, crypt distortion and ulcerations). One to seven animals per group were studied, according to treatments. Myeloperoxidase (MPO) activity was measured on tissue lysates.
# [5] = test system: IL-1R/IL-1RacP receptor; test: Ex vivo vasomotricity: reversal of IL-1β-induced vasodilation of piglet pial vessels; conditions: IL-1β 75 ng/ml
# Method: Ex vivo vasomotor response on brain vessels was performed as described (Li et al., 1996; Hou et al., 2000; Hou et al., 2001; Hou et al., 2003). Brains were removed from Yorkshire piglets. Slices of cortex exposing the pial vessels were pinned to a wax base of a 20 ml bath containing Krebs buffer (pH 7.4) equilibrated with 95% O2, 5% CO2 and maintained at 37° C. Microvessels were visualized and recorded using a video camera mounted on a dissecting microscope. Vascular diameter was measured using a digital image analyzer. Vascular diameter was recorded before and after topical application of pre-constricting agent, U46619 (10^−7 M). After stabilization of preparation, the ligand (IL-1β, 75 ng/ml) was added until stable vasodilation was detected. Peptides were subsequently added at different concentrations from 10^−10 to 10^−5 M. Reversal of vasodilatation was visualized and measured as previously described (Hou, et al. 2000; Hou et al. 2001; Hou et al. 2003); triplicate measurements were conducted on 2 animals.
# [6] = Table 5, derivatives of 101.113
# [7] = Intrarectal administration, 50.0-qd mg/kg/d
# [8] = Intermittent injection (ip), 10.0-qd mg/kg/d
# [9] = Table 4: TF-1 proliferation and PGE2 synthesis in endothelial cells, derivatives of 101.107
# [10] = Continuous infusion (ip), 8.0 mg/kg/d
compound,measurement,setting,value
"CC(C)C[C@@H](NC(=O)[C@@H](CCC(=O)O)NC(=O)[C@H]1CCCN1C(=O)[C@H](NC(=O)[C@@H](Cc1ccccc1)NC(=O)[C@H](N)CCCNC(=N)N)[C@H](C)O)C(N)=O [API-101.132, RFTPEL] (HELM PEPTIDE1{[dR].[dF].[dT].[dP].[dE].[dL].[am]}$$$$V2.0; N-terminus and C-terminus assumed)","activity of the peptide, in words",[1]; [6],relatively decreased
APRYTVEAA [API-101.7],"inhibition of IL-1-induced PGE2 synthesis, compared with parent API-101",[2],lost almost all activity
same,"inhibition of IL-1-induced PGE2 synthesis, compared with parent API-101",[3],lost almost all activity
APRYTAELA [API-101.5],"inhibition of IL-1-induced PGE2 synthesis, compared with parent API-101",[2],lost almost all activity
same,"inhibition of IL-1-induced PGE2 synthesis, compared with parent API-101",[3],lost almost all activity
"C[C@@H]1C[C@H]2[C@@H]3CCC4=CC(=O)C=C[C@]4(C)[C@@]3(F)[C@@H](O)C[C@]2(C)[C@@]1(O)C(=O)CO [Dexamethasone, dexamethasone, reference compound]",MPO (% of TNBS + Saline),"[4]; Intermittent injection (ip), 0.75-qd mg/kg/d",60 % of TNBS + Saline
"CC(C)C[C@@H](NC(=O)[C@@H](CCC(=O)O)NC(=O)[C@H]1CCCN1C(=O)[C@H](NC(=O)[C@@H](Cc1ccc(O)cc1)NC(=O)[C@@H](N)CCCNC(=N)N)[C@H](C)O)C(N)=O [API-101.135, *RYTPEL]","activity of the peptide, in words",[1]; [6],lowered but not lost completely
"Nc1ccc(O)c(C(=O)O)c1 [5-ASA, reference compound]",MPO (% of TNBS + Saline),[4]; [7],49 % of TNBS + Saline
same,histologic evaluation (median score),[4]; [7],3.3
same,macroscopic evaluation (median score),[4]; [7],1.5
Remicade: anti-TNFα [reference compound],MPO (% of TNBS + Saline),[4]; [8],88 ± 41 % of TNBS + Saline
same,histologic evaluation (median score),[4]; [8],2.5 (1-3.75)**
same,macroscopic evaluation (median score),[4]; [8],0.5
"CC(C)C[C@@H](NC(=O)[C@@H](CC(=O)O)NC(=O)[C@H]1CCCN1C(=O)[C@H](NC(=O)[C@@H](Cc1ccc(O)cc1)NC(=O)[C@H](N)CCCNC(=N)N)[C@H](C)O)C(=O)N[C@H](C)C(N)=O [API-101.117, RYTPDLA] (HELM PEPTIDE1{[dR].[dY].[dT].[dP].[dD].[dL].[dA].[am]}$$$$V2.0; N-terminus and C-terminus assumed)",Emax,[2],100%
"CC(C)C[C@@H](NC(=O)[C@@H](CCC(=O)O)NC(=O)[C@H]1CCCN1C(=O)[C@H](NC(=O)[C@@H](Cc1ccc(O)cc1)NC(=O)[C@H](N)CCCNC(N)=O)[C@H](C)O)C(N)=O [API-101.134, XYTPEL (X = Citrulline)]","activity of the peptide, in words",[1]; [6],little or no activity
"CC(C)C[C@@H](NC(=O)[C@@H](CCC(=O)O)NC(=O)[C@H]1CCCN1C(=O)[C@H](NC(=O)[C@@H](Cc1ccc(O)cc1)NC(=O)[C@H](N)CCCN)[C@H](C)O)C(=O)N[C@H](C)C(N)=O [API-101.115, XYTPELA (X = Ornithine)] (HELM PEPTIDE1{[NCCC[C@@H](N)C(=O)[*:2]].[dY].[dT].[dP].[dE].[dL].[dA].[am]}$$$$V2.0; N-terminus and C-terminus assumed)","activity of the peptide, in words",[1]; [9],maintains its activity
"Kineret: natural soluble receptor IL-1Ra mimetic, Anakinra, developed by Amgen [reference compound]",MPO (% of TNBS + Saline),[4]; [10],63 % of TNBS + Saline
same,histologic evaluation (median score),[4]; [10],2 (Small ulcer (<5 crypts))
"CC(C)C[C@@H](NC(=O)[C@@H](CCC(=O)O)NC(=O)[C@H]1CCCN1C(=O)[C@H](NC(=O)[C@@H](Cc1ccc(O)cc1)NC(=O)[C@H](N)CCCCN)[C@H](C)O)C(=O)N[C@H](C)C(N)=O [API-101.114, KYTPELA] (HELM PEPTIDE1{[dK].[dY].[dT].[dP].[dE].[dL].[dA].[am]}$$$$V2.0; N-terminus and C-terminus assumed)",Emax,[2],50%
same,"activity of the peptide, in words",[1]; [9],maintains its activity
XYTPEL (X = Ornithine) [API-101.126],"activity of the peptide, in words",[1]; [6],little or no activity
APRATVELA [API-101.3],reversal of IL-1β-induced vasodilation,[5],reversed the vasodilation
"CC(C)C[C@@H](NC(=O)[C@@H](CCC(=O)O)NC(=O)[C@H]1CCCN1C(=O)[C@H](NC(=O)[C@@H](Cc1c[nH]c2ccccc12)NC(=O)[C@H](N)CCCNC(=N)N)[C@H](C)O)C(=O)N[C@H](C)C(N)=O [API-101.116, RWTPELA] (HELM PEPTIDE1{[dR].[dW].[dT].[dP].[dE].[dL].[dA].[am]}$$$$V2.0; N-terminus and C-terminus assumed)",Emax,[2],45%
"CC(C)C[C@@H](NC(=O)[C@@H](CCC(=O)O)NC(=O)[C@H]1CCCN1C(=O)[C@H](NC(=O)[C@@H](Cc1c[nH]c2ccccc12)NC(=O)[C@H](N)CCCNC(=N)N)[C@H](C)O)C(N)=O [API-101.128, RWTPEL]",Emax,"[1]; TF-1, Table 5",100%
same,"activity of the peptide, in words",[1]; [6],relatively decreased
XRYTPELA (X = Acetyl) (Ac-[dR][dY][dT][dP][dE][dL][dA]) [API-101.121],"activity of the peptide, in words",[1]; [9],completely lost
RFVPELA [API-101.127],"activity of the peptide, in words",[1]; [6],completely abolished the activity
KYTPEL ([dK][dY][dT][dP][dE][dL]) [API-101.133],"activity of the peptide, in words",[1]; [6],little or no activity
